Test [1] has as its target D(3) dopamine receptor (Homo sapiens, UniProt P35462). Description: GPCRScan assay: inhibition of D3. Further details: radioligand conc. used [nm] 0.5 – 1.8, parental cells HEKT.
Test [2] addresses Sodium-dependent dopamine transporter (Homo sapiens, UniProt Q01959). Description: GPCRScan assay: inhibition of DAT. Further details: radioligand conc. used [nm] 3.6 – 16.0, parental cells stable HEK.
Test [3] addresses Alpha-1D adrenergic receptor (Homo sapiens, UniProt P25100). Description: GPCRScan assay: inhibition of Alpha1D. Set-up: radioligand conc. used [nm] 0.3 – 1.0, parental cells stable.
The test system of test [4] is RS4-11. Description: CellTiter-Glo Luminescent Cell Viability Assay with RS4-11 cells (BCL-2 dependent cell line). Type of test: functional, cell-based. Conditions: Homo sapiens; call rule not given here. For orientation: Cellular ATP, detected with luciferase, serves as a proxy for viable cell number.
For test [5], the target named is T1, Muscarinic acetylcholine receptor M2 (Homo sapiens) (UniProt P08172).
T1 sequence (whole entry): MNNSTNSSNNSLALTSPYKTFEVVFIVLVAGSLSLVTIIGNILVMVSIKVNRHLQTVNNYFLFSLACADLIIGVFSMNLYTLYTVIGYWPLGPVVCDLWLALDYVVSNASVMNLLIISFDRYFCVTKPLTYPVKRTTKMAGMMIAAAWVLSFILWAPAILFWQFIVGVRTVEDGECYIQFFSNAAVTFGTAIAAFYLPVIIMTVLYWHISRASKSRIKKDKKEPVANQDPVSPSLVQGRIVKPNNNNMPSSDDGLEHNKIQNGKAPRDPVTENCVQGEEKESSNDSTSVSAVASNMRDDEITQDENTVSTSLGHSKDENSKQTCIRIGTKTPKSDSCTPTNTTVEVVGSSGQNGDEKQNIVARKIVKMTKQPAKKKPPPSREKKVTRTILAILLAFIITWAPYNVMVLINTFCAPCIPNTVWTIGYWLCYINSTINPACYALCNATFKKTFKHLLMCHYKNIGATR
Description: M2 (h) Eurofins-Cerep binding assay. Set-up: ligand concentration 2 nM. Conditions: filed as antagonist, Compound concentration 10.0 uM.

For test [6], the target named is Discoidin domain-containing receptor 2 (Homo sapiens) (UniProt Q16832). The settings on record: Compound concentration 1000.0 nM.
Discoidin domain-containing receptor 2 (Homo sapiens), sequence (Q16832 whole entry, the tested form may be a part): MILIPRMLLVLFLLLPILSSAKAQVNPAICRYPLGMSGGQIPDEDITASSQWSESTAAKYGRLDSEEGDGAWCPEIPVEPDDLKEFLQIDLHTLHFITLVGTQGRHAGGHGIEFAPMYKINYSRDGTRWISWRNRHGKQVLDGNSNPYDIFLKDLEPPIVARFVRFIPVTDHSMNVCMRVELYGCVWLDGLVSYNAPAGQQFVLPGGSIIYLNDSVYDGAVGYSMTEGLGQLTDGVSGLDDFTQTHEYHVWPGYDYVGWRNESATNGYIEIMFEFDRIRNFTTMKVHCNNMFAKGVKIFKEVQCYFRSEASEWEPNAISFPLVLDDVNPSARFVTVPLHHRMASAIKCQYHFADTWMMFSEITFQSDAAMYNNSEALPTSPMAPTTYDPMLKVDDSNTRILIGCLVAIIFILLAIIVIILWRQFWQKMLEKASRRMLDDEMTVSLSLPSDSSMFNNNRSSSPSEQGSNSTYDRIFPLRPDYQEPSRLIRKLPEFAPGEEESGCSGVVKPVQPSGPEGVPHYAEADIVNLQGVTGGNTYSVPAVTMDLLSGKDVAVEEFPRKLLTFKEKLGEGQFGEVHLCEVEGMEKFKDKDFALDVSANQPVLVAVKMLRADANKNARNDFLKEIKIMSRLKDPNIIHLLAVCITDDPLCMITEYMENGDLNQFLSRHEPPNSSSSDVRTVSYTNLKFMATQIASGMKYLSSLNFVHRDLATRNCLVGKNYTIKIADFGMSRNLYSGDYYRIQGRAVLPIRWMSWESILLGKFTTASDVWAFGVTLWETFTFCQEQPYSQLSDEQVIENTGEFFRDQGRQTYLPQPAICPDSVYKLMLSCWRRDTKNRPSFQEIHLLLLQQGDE
Test [7] addresses Mitogen-activated protein kinase 15 (Homo sapiens) (UniProt Q8TD08). Conditions: Compound concentration 1000.0 nM.
Test [8] addresses Receptor-type tyrosine-protein kinase FLT3 (Homo sapiens) (UniProt P36888). Conditions: Compound concentration 1000.0 nM.
In test [9] the target is Dual specificity mitogen-activated protein kinase kinase 7 (Homo sapiens) (UniProt O14733). The settings on record: Compound concentration 1000.0 nM.
Dual specificity mitogen-activated protein kinase kinase 7 (Homo sapiens), sequence (O14733 whole entry): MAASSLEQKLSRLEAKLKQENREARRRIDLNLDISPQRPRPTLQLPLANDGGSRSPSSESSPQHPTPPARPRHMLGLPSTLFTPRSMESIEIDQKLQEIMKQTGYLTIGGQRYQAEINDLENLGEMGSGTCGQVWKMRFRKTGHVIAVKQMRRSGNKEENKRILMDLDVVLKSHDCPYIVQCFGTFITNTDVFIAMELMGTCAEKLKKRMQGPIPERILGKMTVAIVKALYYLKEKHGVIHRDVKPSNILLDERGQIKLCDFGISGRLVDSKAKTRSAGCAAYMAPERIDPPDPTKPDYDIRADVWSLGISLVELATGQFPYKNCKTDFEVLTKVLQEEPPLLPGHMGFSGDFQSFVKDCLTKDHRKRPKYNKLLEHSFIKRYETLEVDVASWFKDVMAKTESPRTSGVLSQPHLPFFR
Test [10] concerns the target Serine/threonine-protein kinase D1 (Homo sapiens) (UniProt Q15139). Conditions: Compound concentration 1000.0 nM.
Test [11] deals with Kappa-type opioid receptor (Homo sapiens) (UniProt P41145). The settings on record: Compound concentration 10.0 uM.
In test [12] the target is Induced myeloid leukemia cell differentiation protein Mcl-1 (Homo sapiens, UniProt Q07820). Description: Time-resolved fluorescence energy transfer (TR-FRET) with MCL1. Background: In TR-FRET formats the signal depends on donor and acceptor labels being close together.
The test system of test [13] is AMO1. Description: CellTiter-Glo Luminescent Cell Viability Assay ( MCL-1 dependent cell line AMO-1). The test is classed as functional, cell-based. Conditions: Homo sapiens.
For test [14], the target named is T2, 5-hydroxytryptamine receptor 1A (Homo sapiens) (UniProt P08908).
T2 sequence (whole entry): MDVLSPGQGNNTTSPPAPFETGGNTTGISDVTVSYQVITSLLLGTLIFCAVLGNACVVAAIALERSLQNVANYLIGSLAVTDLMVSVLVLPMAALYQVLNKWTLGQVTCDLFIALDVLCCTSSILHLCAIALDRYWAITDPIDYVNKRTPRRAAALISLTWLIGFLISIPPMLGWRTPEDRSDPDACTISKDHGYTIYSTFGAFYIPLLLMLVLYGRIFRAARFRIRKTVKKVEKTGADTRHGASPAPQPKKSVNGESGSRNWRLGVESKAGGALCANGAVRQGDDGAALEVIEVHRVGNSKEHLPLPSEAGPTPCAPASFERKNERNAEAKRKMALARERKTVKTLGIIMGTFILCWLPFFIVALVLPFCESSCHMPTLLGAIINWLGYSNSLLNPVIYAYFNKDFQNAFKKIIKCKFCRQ
Conditions: Compound concentration 10.0 uM.

Test [15] concerns the target 5-hydroxytryptamine receptor 6 (Homo sapiens) (UniProt P50406). Conditions: Compound concentration 10.0 uM.
Test [16] deals with 5-hydroxytryptamine receptor 7 (Homo sapiens) (UniProt P34969). Conditions: Compound concentration 10.0 uM.
In test [17] the target is D(4) dopamine receptor (Homo sapiens) (UniProt P21917). Conditions: Compound concentration 10.0 uM.
D(4) dopamine receptor (Homo sapiens), sequence (P21917 whole entry): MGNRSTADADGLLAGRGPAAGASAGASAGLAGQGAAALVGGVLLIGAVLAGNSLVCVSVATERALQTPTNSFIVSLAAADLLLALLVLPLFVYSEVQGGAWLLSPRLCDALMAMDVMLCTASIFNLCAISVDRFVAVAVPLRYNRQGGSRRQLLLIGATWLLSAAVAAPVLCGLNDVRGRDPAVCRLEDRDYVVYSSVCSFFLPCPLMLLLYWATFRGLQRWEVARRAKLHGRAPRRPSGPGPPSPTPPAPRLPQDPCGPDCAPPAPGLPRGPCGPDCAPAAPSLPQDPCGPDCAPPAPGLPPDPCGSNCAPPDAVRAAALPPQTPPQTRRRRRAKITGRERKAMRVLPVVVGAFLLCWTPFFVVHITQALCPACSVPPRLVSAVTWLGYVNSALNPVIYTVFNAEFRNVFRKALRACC
Test [18] addresses Sodium-dependent noradrenaline transporter (Homo sapiens) (UniProt P23975). The settings on record: Compound concentration 10.0 uM.
Test [19] concerns the target Beta-2 adrenergic receptor (Homo sapiens) (UniProt P07550). Conditions: Compound concentration 10.0 uM.
Test [20] concerns the target Beta-3 adrenergic receptor (Homo sapiens) (UniProt P13945). The settings on record: Compound concentration 10.0 uM.
Test [21] has as its target Alpha-1D adrenergic receptor (Homo sapiens) (UniProt P25100). The settings on record: Compound concentration 10.0 uM.

The text below walks through data of ChEMBL document CHEMBL4507310, “Data for DCP probe A-1211212” (2021).

Serine/threonine-protein kinase D1 (Homo sapiens), sequence (Q15139 whole entry): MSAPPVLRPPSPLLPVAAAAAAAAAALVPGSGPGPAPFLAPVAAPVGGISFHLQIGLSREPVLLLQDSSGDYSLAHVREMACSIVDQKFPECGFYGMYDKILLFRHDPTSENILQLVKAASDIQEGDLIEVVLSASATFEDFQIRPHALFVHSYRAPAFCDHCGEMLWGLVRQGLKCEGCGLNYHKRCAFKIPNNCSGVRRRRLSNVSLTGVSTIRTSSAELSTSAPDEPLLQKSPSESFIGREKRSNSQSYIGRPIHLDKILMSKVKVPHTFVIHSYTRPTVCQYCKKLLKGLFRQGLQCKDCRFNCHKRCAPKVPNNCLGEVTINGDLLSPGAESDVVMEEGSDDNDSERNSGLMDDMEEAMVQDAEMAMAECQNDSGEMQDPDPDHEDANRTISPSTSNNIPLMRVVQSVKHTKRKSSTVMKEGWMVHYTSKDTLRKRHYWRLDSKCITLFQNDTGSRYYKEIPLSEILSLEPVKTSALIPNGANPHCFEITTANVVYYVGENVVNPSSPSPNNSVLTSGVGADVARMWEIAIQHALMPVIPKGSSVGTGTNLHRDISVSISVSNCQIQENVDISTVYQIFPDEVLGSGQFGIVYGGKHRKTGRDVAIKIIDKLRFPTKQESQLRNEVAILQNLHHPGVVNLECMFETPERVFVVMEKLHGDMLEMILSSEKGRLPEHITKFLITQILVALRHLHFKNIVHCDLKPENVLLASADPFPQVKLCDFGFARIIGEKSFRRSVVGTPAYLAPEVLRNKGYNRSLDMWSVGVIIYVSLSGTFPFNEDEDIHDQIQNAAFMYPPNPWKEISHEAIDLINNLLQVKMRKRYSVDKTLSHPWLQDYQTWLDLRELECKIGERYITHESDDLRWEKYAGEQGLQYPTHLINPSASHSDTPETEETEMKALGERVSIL
Sodium-dependent dopamine transporter, sequence (Q01959 whole entry): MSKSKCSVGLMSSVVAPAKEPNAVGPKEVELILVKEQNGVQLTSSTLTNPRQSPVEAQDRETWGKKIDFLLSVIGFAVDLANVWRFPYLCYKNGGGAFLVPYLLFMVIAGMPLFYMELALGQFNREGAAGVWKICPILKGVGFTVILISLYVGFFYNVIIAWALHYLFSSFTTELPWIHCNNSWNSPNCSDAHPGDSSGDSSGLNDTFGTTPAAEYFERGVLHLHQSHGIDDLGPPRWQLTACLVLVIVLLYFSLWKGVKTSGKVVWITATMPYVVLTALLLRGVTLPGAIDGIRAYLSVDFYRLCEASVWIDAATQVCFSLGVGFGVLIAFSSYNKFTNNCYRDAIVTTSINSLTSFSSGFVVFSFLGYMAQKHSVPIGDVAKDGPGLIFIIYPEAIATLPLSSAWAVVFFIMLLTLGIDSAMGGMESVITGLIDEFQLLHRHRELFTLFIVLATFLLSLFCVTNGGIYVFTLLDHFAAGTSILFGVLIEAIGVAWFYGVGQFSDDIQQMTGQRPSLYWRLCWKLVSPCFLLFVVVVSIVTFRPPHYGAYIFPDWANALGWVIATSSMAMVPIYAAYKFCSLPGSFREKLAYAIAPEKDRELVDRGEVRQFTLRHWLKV
Mitogen-activated protein kinase 15 (Homo sapiens), sequence (Q8TD08 whole entry): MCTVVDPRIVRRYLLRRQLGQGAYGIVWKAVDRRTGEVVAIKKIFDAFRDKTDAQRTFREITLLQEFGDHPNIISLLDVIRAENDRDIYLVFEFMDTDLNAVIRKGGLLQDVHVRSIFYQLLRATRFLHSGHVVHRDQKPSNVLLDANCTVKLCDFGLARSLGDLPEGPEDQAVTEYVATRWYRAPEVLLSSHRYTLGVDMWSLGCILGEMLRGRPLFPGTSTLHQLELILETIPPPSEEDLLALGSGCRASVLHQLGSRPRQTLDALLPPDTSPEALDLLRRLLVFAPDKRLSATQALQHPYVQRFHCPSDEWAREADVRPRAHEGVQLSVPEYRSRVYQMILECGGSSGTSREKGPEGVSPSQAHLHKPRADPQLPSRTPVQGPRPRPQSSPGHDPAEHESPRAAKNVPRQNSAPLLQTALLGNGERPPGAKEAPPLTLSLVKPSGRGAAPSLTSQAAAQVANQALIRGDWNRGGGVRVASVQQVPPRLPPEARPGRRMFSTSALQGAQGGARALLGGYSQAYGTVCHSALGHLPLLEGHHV
Receptor-type tyrosine-protein kinase FLT3 (Homo sapiens), sequence (P36888 whole entry): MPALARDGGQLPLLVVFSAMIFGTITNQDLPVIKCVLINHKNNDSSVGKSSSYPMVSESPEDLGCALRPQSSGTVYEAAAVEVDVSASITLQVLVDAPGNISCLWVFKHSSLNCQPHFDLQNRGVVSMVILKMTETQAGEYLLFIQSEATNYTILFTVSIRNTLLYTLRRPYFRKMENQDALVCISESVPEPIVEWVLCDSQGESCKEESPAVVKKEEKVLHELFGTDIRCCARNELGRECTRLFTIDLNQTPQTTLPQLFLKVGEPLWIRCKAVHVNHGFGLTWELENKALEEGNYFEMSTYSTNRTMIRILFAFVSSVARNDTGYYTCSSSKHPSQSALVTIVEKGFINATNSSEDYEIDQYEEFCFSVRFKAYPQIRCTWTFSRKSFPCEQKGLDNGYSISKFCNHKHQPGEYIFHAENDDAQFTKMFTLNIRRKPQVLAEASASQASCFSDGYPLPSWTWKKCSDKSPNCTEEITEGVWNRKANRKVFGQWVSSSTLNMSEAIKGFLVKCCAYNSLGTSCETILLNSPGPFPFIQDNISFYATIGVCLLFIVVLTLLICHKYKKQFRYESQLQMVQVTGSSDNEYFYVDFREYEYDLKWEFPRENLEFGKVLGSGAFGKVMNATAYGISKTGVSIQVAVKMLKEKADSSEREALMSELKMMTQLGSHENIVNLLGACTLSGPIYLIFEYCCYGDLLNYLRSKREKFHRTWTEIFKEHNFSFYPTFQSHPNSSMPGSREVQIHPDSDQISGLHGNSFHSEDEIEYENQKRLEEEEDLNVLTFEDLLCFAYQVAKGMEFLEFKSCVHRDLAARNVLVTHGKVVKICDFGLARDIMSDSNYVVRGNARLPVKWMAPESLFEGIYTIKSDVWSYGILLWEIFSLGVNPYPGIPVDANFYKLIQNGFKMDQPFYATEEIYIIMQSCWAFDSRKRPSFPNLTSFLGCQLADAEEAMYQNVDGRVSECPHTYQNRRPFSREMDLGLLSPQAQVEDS

As usually defined, the EC50 is the concentration that produces a half-maximal response. Low readings indicate greater potency, high ones weaker potency. The inhibition is the change of the read-out against control, counted positive when it falls. Consider `O=C(NS(=O)(=O)c1ccc(NCC2CCOCC2)c([N+](=O)[O-])c1)c1ccc(N2CCN(Cc3ccc(C(F)(F)F)cc3-c3ccc(Cl)cc3)CC2)cc1Oc1cnc2[nH]ccc2c1` [A-1210227], for which the Ki in [1] is 10 µM; in test [2] (read-out: Ki) it was 9.8 µM; in test [2] (read-out: pKi (converted)), 9.77 µM; in test [3], 10 µM. Also, the EC50 in [4] was > 5 µM (not active). The % Inhibition of Control Specific Binding (Mean n=2) in test [5] was determined as 0.3%. Moreover, the residual activity in test [6] was 90%; in test [7] it was 94%; in test [8], 100%; in [9], 100%; in test [10], 89%. Besides, in test [11], the inhibition is -0.08%.
As a reminder, the IC50 is the concentration needed to halve the response being measured. For the compound `CO[C@H]1CC[C@H](CNc2ccc(S(=O)(=O)NC(=O)c3ccc(N4CCN(CC5=C(c6ccc(Cl)cc6)CC(C)(C)CC5)CC4)cc3Oc3cnc4[nH]ccc4c3)cc2[N+](=O)[O-])CC1` [A-1211212], the IC50 in test [12] was 2.05 µM (not active). Further, in test [13], the EC50 is > 1 µM (not active). Also, the % Inhibition of Control Specific Binding (Mean n=2) in test [5] is -4.7%. The residual activity in test [6] is 100%; in test [7], 85%; in [8], 100%; in test [9] it was 100%; in [10], 76%. In addition, the inhibition is -7.27% in [14]; -8.56% in [15]; -7.24% in [16]; -4.72% in [17]; 39.5% in test [18]; 21.3% in test [19]. The inhibition is -6.65% in test [20] and -9.01% in [21].
